Assay results: patent US8252723B2, “Substituted 1-(3-pyridinyl)pyrazol-4-ylacetic acids, processes for their preparation and their use as herbicides and plant growth regulators” (Bayer CropScience AG, priority 2006, dated 2012)

Test system: summer wheat of the cultivar 'Triso'
Assay: Plant growth regulation test: culm stabilization of crop plants
Assay type: in vivo
Details: application rate of 30 to 300 g of active substance per hectare, treated at stage BBCH 31, culm length measured after ears had formed
Procedure: With stirring, the compound of the formula (I) in question was, in the form of a water-dispersible powder, together with a surfactant (customary adjuvant at an application rate of 1 l/ha), mixed with water such that a homogenous spray liquor was formed, and applied at an application rate of 300 l of water/ha (converted).
Seeds of summer wheat of the cultivar ‘Triso’ were sown at a depth of 1 cm in plant pots and cultivated outdoors until treatment.
The plants were treated on a laboratory track sprayer with spray liquors of the test substances at macrostage 3 after having reached about 10% of the maximum longitudinal growth typical for the cultivar (stage BBCH 31) and, after the treatment, returned outdoors.
After the ears had formed, the length of the culms were measured. The culm stabilization was evaluated as a percentage of the untreated control.

## Cc1ccc(-c2c(CC(=O)O)c(C)nn2-c2cnccc2C)cc1Cl [Example 1-49]
  longitudinal growth (culm length) of summer wheat: effectively shortened

## Cc1nn(-c2cccnc2)c(-c2ccccn2)c1CC(=O)OCC1CCCO1 (stereo not shown) [Example 3-230]
  longitudinal growth (culm length) of summer wheat: effectively shortened

## Cc1ccc(-c2c(CC(=O)O)c(C)nn2-c2cccnc2)s1 [Example 1-61]
  longitudinal growth (culm length) of summer wheat: effectively shortened

## COC(=O)Cc1c(C)nn(-c2cccnc2)c1-c1ccncc1 [Example 2-126]
  longitudinal growth (culm length) of summer wheat: effectively shortened

## Cc1ccncc1-n1nc(C)c(CC(=O)O)c1-c1ccc(Cl)cc1 [Example 1-25]
  longitudinal growth (culm length) of summer wheat: effectively shortened

## Cc1ccnc(-c2c(CC(=O)O)c(C)nn2-c2cccnc2)c1 [Example 1-136]
  longitudinal growth (culm length) of summer wheat: effectively shortened

## Cc1nn(-c2ccc(Cl)nc2)c(-c2ccccc2)c1CC(=O)O [Example 1-7]
  longitudinal growth (culm length) of summer wheat: effectively shortened

## COC(=O)Cc1c(C)nn(-c2cccnc2)c1-c1ccc(Cl)c(C)c1 [Example 2-123]
  longitudinal growth (culm length) of summer wheat: effectively shortened

## COC(=O)Cc1c(C)nn(-c2cccnc2)c1-c1sccc1C [Example 2-58]
  longitudinal growth (culm length) of summer wheat: effectively shortened

## Cc1nn(-c2cccnc2)c(-c2ccc(C(F)(F)F)cn2)c1CC(=O)O [Example 1-144]
  longitudinal growth (culm length) of summer wheat: effectively shortened

## Cc1ccncc1-n1nc(C)c(CC(=O)O)c1-c1ccc(Cl)s1 [Example 1-55]
  longitudinal growth (culm length) of summer wheat: effectively shortened

## COC(=O)Cc1c(C)nn(-c2cnccc2C)c1-c1ccc2c(c1)OCO2 [Example 2-66]
  longitudinal growth (culm length) of summer wheat: effectively shortened

## COC(=O)Cc1cnn(-c2cccnc2)c1-c1ccccc1 [Example 2-72]
  longitudinal growth (culm length) of summer wheat: effectively shortened

## CCOC(=O)Cc1c(C)nn(-c2cccnc2)c1-c1ccccn1 [Example 3-227]
  longitudinal growth (culm length) of summer wheat: effectively shortened

## COC(=O)Cc1c(C)nn(-c2cccnc2)c1-c1ccc(C)cc1 [Example 2-16]
  longitudinal growth (culm length) of summer wheat: effectively shortened

## COC(=O)Cc1c(C)nn(-c2cnccc2C)c1-c1ccc(C)c(Cl)c1 [Example 2-49]
  longitudinal growth (culm length) of summer wheat: effectively shortened

## Cc1nn(-c2cccnc2)c(-c2ccc(Cl)cc2)c1CC(=O)OC1COC1 [Example 3-232]
  longitudinal growth (culm length) of summer wheat: effectively shortened

## Cc1nn(-c2cccnc2)c(-c2cccnc2)c1CC(=O)O [Example 1-125]
  longitudinal growth (culm length) of summer wheat: effectively shortened

## COC(=O)Cc1c(C)nn(-c2cnccc2C)c1-c1ccc(Cl)c(Cl)c1 [Example 2-20]
  longitudinal growth (culm length) of summer wheat: effectively shortened

## Cc1ncccc1-n1nc(C)c(CC(=O)O)c1-c1ccccc1 [Example 1-135]
  longitudinal growth (culm length) of summer wheat: effectively shortened

## COC(=O)Cc1c(C)nn(-c2cnccc2C)c1-c1cccc(Cl)c1 [Example 2-21]
  longitudinal growth (culm length) of summer wheat: effectively shortened

## C=C(Cl)COC(=O)Cc1c(C)nn(-c2cccnc2)c1-c1ccc(F)cc1 [Example 3-198]
  longitudinal growth (culm length) of summer wheat: effectively shortened

## Cc1ccnc(-c2c(CC(=O)O)c(C)nn2-c2cnccc2C)c1 [Example 1-137]
  longitudinal growth (culm length) of summer wheat: effectively shortened

## Cc1ccc(-c2c(CC(=O)O)c(C)nn2-c2cccnc2)nc1 [Example 1-113]
  longitudinal growth (culm length) of summer wheat: effectively shortened

## Cc1nn(-c2cnccc2C(F)(F)F)c(-c2ccccc2)c1CC(=O)O [Example 1-8]
  longitudinal growth (culm length) of summer wheat: effectively shortened

## C=C(Cl)COC(=O)Cc1c(C)nn(-c2cccnc2)c1-c1ccsc1 [Example 3-187]
  longitudinal growth (culm length) of summer wheat: effectively shortened

## C#CCOC(=O)Cc1c(C)nn(-c2cccnc2)c1-c1ccccn1 [Example 3-73]
  longitudinal growth (culm length) of summer wheat: effectively shortened

## COC(=O)Cc1c(C)nn(-c2cccnc2)c1-c1cc(C)cs1 [Example 2-59]
  longitudinal growth (culm length) of summer wheat: effectively shortened

## COC(=O)Cc1c(C)nn(-c2cnccc2Cl)c1-c1ccccc1 [Example 2-30]
  longitudinal growth (culm length) of summer wheat: effectively shortened

## CC#CCOC(=O)Cc1c(C)nn(-c2cccnc2)c1-c1ccccn1 [Example 3-136]
  longitudinal growth (culm length) of summer wheat: effectively shortened

## C#CCOC(=O)Cc1c(C)nn(-c2cccnc2)c1-c1ccc(F)cc1 [Example 3-68]
  longitudinal growth (culm length) of summer wheat: effectively shortened

## C=C(Cl)COC(=O)Cc1c(C)nn(-c2cccnc2)c1-c1sccc1C [Example 3-188]
  longitudinal growth (culm length) of summer wheat: effectively shortened

## Cc1ccc(-n2nc(C)c(CC(=O)O)c2-c2ccccc2)c(C)n1 [Example 1-11]
  longitudinal growth (culm length) of summer wheat: effectively shortened

## Cc1ccncc1-n1nc(C)c(CC(=O)O)c1-c1cccc(C(F)(F)F)c1 [Example 1-19]
  longitudinal growth (culm length) of summer wheat: effectively shortened

## CCCc1nn(-c2cnccc2C)c(-c2ccc(Cl)cc2)c1CC(=O)OC [Example 2-124]
  longitudinal growth (culm length) of summer wheat: effectively shortened

## COC(=O)Cc1c(C2CC2)nn(-c2cccnc2)c1-c1ccc(Cl)cc1 [Example 2-146]
  longitudinal growth (culm length) of summer wheat: effectively shortened

## COC(=O)Cc1c(C)nn(-c2cnccc2[S+](C)[O-])c1-c1ccc(Cl)cc1 (stereo not shown) [Example 2-64]
  longitudinal growth (culm length) of summer wheat: effectively shortened

## Cc1nn(-c2cnccc2[S+](C)[O-])c(-c2ccc(Cl)cc2)c1CC(=O)O (stereo not shown) [Example 1-64]
  longitudinal growth (culm length) of summer wheat: effectively shortened

## COC(=O)Cc1c(C)nn(-c2cnccc2C)c1-c1ccc(C)cc1 [Example 2-36]
  longitudinal growth (culm length) of summer wheat: effectively shortened

## COC(=O)C(C)c1c(C)nn(-c2cnccc2C)c1-c1ccccc1 (stereo not shown) [Example 2-6]
  longitudinal growth (culm length) of summer wheat: effectively shortened

## COCCOC(=O)Cc1c(C)nn(-c2cccnc2)c1-c1ccc(Cl)cc1 [Example 3-229]
  longitudinal growth (culm length) of summer wheat: effectively shortened

## Cc1nn(-c2cccnc2)c(-c2ccco2)c1CC(=O)O [Example 1-4]
  longitudinal growth (culm length) of summer wheat: effectively shortened

## COC(=O)Cc1c(C)nn(-c2cnccc2C)c1-c1ccc(Cl)cc1 [Example 2-25]
  longitudinal growth (culm length) of summer wheat: effectively shortened

## COc1ccc(-c2c(CC(=O)OCC3CC3)c(C)nn2-c2cccnc2)cn1 [Example 3-86]
  longitudinal growth (culm length) of summer wheat: effectively shortened

## Cc1nn(-c2cccnc2)c(-c2ccc(F)cc2)c1CC(=O)OCC1CC1 [Example 3-91]
  longitudinal growth (culm length) of summer wheat: effectively shortened

## COC(=O)Cc1c(C)nn(-c2cnccc2C)c1-c1ccc(OC)cc1 [Example 2-13]
  longitudinal growth (culm length) of summer wheat: effectively shortened
